Measurements reported in US7632952B2, “Benzothiazoles and the use thereof as medicaments” (Aventis Pharma S.A., priority 2004, dated 2009).
pIC50: −log10 of the molar value. Counter-ions that a name gives are not always drawn.

Experiments:
HeLa = HeLa proliferation; assay type: cell-based; details: Homo sapiens, read-out: HeLa proliferation EC50 (nM) DG
CDK4/cyclin D1 = CDK4/cyclin D1 (Homo sapiens, UniProt P11802); test: CDK4/cyclin D1 Flashplate test in 96-well format; assay type: biochemical
Method: 2. CDK4/cyclin D1 Protocol:
Purification of the CDK4-HA/cyclin D1-(His)6 Complex by IMAC (Immobilized Metal Affinity Chromatography):
Two recombinant baculoviruses bearing the human sequences coding, respectively, for CDK4-HA (C-terminal fusion with the hemaglutinin tag) and for cyclin D1-(His)6 are used to coinfect insect Sf9 cells. Sixty hours after the start of the coinfection, the cells are harvested by centrifugation and then frozen at −20° C. until the time of use.
CDK4/cyclin D1 Flashplate Test in 96-Well Format
A test in 96-well “Flashplate” plates coated with streptavidin is used to evaluate the inhibition of the CDK4/cyclin D1 kinase complex by the products of the invention. To perform this test, the biotinylated peptide substrate, a fragment of the pRb protein (biotinyl-[…]-amide) is dissolved at a concentration of 2 mM in kinase buffer (HEPES/NaOH 50 mM, NaCl 1 mM, MgCl2 5 mM, pH 7.5) in order to constitute a stock solution stored at −20° C. in the form of 110 μl aliquots. On the day of the experiment, an aliquot of this solution is thawed and diluted in kinase buffer containing 1 mM of dithiothreitol, and added to the buffer extemporaneously, in order to obtain a final peptide concentration of 2.571 μM. 70 μl of this solution are added to each well of the Flashplate in order to obtain a final substrate concentration of 1.8 μM during the enzymatic reaction, performed in a final volume of the reaction medium of 100 μl (cf. below). Intermediate dilutions of inhibitors (products of the invention) at various concentrations are prepared in DMSO from stock solutions at 10 mM in separate tubes. 1000 μM, 333.3 μM, 111.1 μM, 37.03 μM, 12.35 μM, 4.11 μM and 1.37 μM dilutions are thus prepared. 1 μl of each of these solutions (or 1 μl of DMSO for the controls) is then transferred into the wells of the test plate. Into each well are then added 19 μl of a solution of a mixture of adenosine triphosphate (ATP) and of ATPy^33P in the kinase buffer at a concentration of 5.26 μM of ATP total and 78.9 μCi/ml of ^33P. The enzymatic reaction is triggered by addition of 10 μl per well of a solution of CDK4/cyclin D1 at 250 nM in the kinase buffer containing 1 mM of dithiothreitol (or 10 μl of kinase buffer containing 1 mM of dithiothreitol for the reaction blanks).
(§1) After addition of all the reagents, the test plate is incubated at 30° C. with orbital stirring at 650 rpm. After the incubation, the plate is washed three times with 300 μl per well of PBS (phosphate-buffered saline, pH=7.4, without calcium or magnesium, reference 10010-015, Gibco BRL). The incorporation of ^33P into the substrate peptide is quantified by scintillation counting using a Packard Topcount.NXT machine. The inhibitory activity of the products of the invention is evaluated by measuring the inhibitory concentration that allows a 50% reduction in the enzymatic activity (IC50).

CDK2/cyclin E = CDK2/cyclin E (Homo sapiens, UniProt P24941); test: CDK2/cyclin E Flashplate test in 96-well format; assay type: biochemical; details: read-out: CDK2 IC50
Method: 1. Protocol CDK2/cyclin E:
Purification of the CDK2/cyclin E-(His)6 Complex by IMAC (Immobilized Metal Affinity Chromatography):
Two recombinant baculoviruses bearing the human sequences coding, respectively, for CDK2 and cyclin E (the latter comprising a C-terminal hexahistidine tag) are used to coinfect insect Sf21 cells. Two to three days after the start of coinfection, the cells are harvested by centrifugation and then stored at −40° C. until the time of use. After thawing and mechanical lysis of the cells, the complex present in the lysis supernatant is purified by affinity chromatography on nickel (IMAC), and stored at −80° C.
CDK2/cyclin E Flashplate Test in 96-Well Format
A format in 96-well plates coated with streptavidin is used to test the activity of the compounds on the kinase activity of CDK2/cyclin E.
To perform this test, the biotinylated peptide substrate, a fragment of the pRb protein (biotinyl-[…]-OH) is dissolved at a concentration of 1 mM in kinase buffer (HEPES/NaOH 50 mM, NaCl 1 mM, MgCl2 5 mM, pH 7.5) in order to constitute a stock solution stored at −20° C. in the form of 110 μl aliquots. On the day of the experiment, an aliquot of this solution is thawed and diluted in kinase buffer containing 1 mM of dithiothreitol, and added to the buffer extemporaneously, in order to obtain a concentration of 14.3 μM. 70 μl of this solution are added to each well of the Flashplate in order to obtain a final substrate concentration of 10 μM during the enzymatic reaction, performed in a final volume of the reaction medium of 100 μl (cf. below).
Intermediate dilutions of inhibitors (products of the invention) at various concentrations are prepared in DMSO from stock solutions at 10 mM in separate tubes. 1000 μM, 333.3 μM, 111.1 μM, 37.03 μM, 12.35 μM, 4.11 μM and 1.37 μM dilutions are thus prepared. 1 μl of each of these solutions (or 1 μl of DMSO for the controls) is transferred into the wells of the test plate.
Into each well are then added 19 μl of a solution of a mixture of adenosine triphosphate (ATP) and of ATPy^33P in the kinase buffer at a concentration of 5.26 μM of ATP total and 52.6 μCi/ml of ^33P. The enzymatic reaction is triggered by addition of 10 μl per well of a solution of CDK2/cyclin E at 200 nM in the kinase buffer containing 1 mM of dithiothreitol (or 10 μl of kinase buffer containing 1 mM of dithiothreitol for the reaction blanks).
After addition of all the reagents, the plate is incubated at 30° C. with orbital stirring at 650 rpm.
as §1, with “When” for “After addition of all”, “incubation” for “reagents, the test plate”, “complete,” for “incubated at 30° C. with orbital stirring at 650 rpm. After the incubation,”, “the” for “the substrate”

CDK4/cyclin D1, sequence (P11802 whole entry): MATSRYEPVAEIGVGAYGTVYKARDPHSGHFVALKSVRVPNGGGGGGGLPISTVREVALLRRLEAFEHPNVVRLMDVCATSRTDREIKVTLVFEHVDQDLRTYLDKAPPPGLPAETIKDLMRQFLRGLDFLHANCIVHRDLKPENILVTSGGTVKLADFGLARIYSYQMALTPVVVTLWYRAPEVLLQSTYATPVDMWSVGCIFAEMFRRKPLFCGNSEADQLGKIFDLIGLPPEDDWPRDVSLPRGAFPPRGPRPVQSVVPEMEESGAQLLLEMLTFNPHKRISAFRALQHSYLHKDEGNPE
CDK4/cyclin D1, sequence (P24385 whole entry partner): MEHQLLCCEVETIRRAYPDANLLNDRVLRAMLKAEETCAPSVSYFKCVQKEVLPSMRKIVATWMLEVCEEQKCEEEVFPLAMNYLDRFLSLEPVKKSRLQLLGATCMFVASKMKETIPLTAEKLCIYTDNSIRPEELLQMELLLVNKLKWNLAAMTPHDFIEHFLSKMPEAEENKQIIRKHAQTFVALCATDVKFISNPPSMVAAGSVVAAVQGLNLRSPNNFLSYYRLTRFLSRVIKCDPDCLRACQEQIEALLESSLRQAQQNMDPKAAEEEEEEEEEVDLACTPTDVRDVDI

| SMILES | EC50 (HeLa) | pIC50 (CDK4/cyclin D1) | pIC50 (CDK2/cyclin E) |
| --- | --- | --- | --- |
| CC(C)NCCNc1ccc(S(=O)(=O)Oc2ccc3nc(NC(=O)CCCCCCCN)sc3c2)cc1 [Example 21, 4-(2-isopropylaminoethylamino)benzenesulfonic acid 2-(8-aminooctanoylamino)benzothiazol-6-yl ester hydrochloride] | 2460 nM | 6.27 | 6.64 |
| CC(C)(O)CNc1ccc(S(=O)(=O)Oc2ccc3nc(NC(=O)CCCCCCCN)sc3c2)cc1 [Example 22d, 4-(2-Hydroxy-2-methyl-propylamino)benzene-sulfonic acid 2-(8-amino-octanoylamino)benzo-thiazol-6-yl ester hydro-chloride] | 5360 nM | 6.15 | 7.16 |
| CC(C)NCCNc1ccc(S(=O)(=O)Oc2ccc3nc(NC(=O)CCC4CCNCC4)sc3c2)cc1 [Example 24, 4-(2-Isopropylaminoethylamino)benzenesulfonic acid 2-(3-piperid-4-ylpropionylamino)benzothiazol-6-yl ester hydrochloride] | > 12500 nM | 5.78 | 6.06 |
| CC(C)CNc1ccc(S(=O)(=O)Oc2ccc3nc(NC(=O)CC4CCNCC4)sc3c2)cc1 [Example 28, 4-isobutylaminobenzenesulfonic acid 2-(2-piperid-4-ylacetylamino)benzothiazol-6-yl ester hydrochloride] | 1330 nM | 6.40 | 6.58 |
| CC(C)N(CCNc1ccc(S(=O)(=O)Oc2ccc3nc(NC(=O)CCCCCCCN)sc3c2)cc1)C(C)C [Example 40, 4-(2-diisopropylaminoethylamino)benzenesulfonic acid 2-(8-aminooctanoylamino)benzothiazol-6-yl ester] | 7550 nM | 6.60 | 6.68 |
| CC(C)N(CCNc1ccc(S(=O)(=O)Oc2ccc3nc(NC(=O)CCCCCN)sc3c2)cc1)C(C)C [Example 49, 4-(2-diisopropylaminoethylamino)benzenesulfonic acid 2-(6-aminohexanoylamino)benzothiazol-6-yl ester hydrochloride] | 2700 nM | 6.48 | 6.74 |
| CC(C)N(CCNc1ccc(S(=O)(=O)Oc2ccc3nc(NC(=O)CCCCCCN)sc3c2)cc1)C(C)C [Example 52, 4-(2-diisopropylaminoethylamino)benzenesulfonic acid 2-(7-aminoheptanoylamino)benzothiazol-6-yl ester hydrochloride] | 2950 nM | 6.72 | 6.95 |
| CC(C)N(CCNc1ccc(S(=O)(=O)Oc2ccc3nc(NC(=O)CCc4cccnc4)sc3c2)cc1)C(C)C [Example 62, 4-(2-diisopropylaminoethylamino)benzenesulfonic acid 2-(3-pyrid-3-ylpropionylamino)benzothiazol-6-yl ester hydrochloride] | 296 nM | 6.63 | 7.12 |
| COCC(=O)Nc1nc2ccc(OS(=O)(=O)c3ccc(NCCNC(C)C)cc3)cc2s1 [Example 67, 4-(2-isopropylaminoethylamino)benzenesulfonic acid 2-(2-methoxyacetylamino)benzothiazol-6-yl ester] | > 12500 nM | 5.91 | 6.53 |
| CC(C)NCCNc1ccc(S(=O)(=O)Oc2ccc3nc(NC(=O)C4CCCC4)sc3c2)cc1 [Example 69, 4-(2-isopropylaminoethylamino)benzenesulfonic acid 2-(cyclopentanecarbonylamino)benzothiazol-6-yl ester] | 1130 nM | 6.04 | 6.52 |
| CCC(=O)Nc1nc2ccc(OS(=O)(=O)c3ccc(NCCNC(C)C)cc3)cc2s1 [Example 71, 4-(2-isopropylaminoethylamino)benzenesulfonic acid 2-propionylaminobenzothiazol-6-yl ester; compound with trifluoroacetic] | 2170 nM | 6.37 | 6.76 |

More lines, now with the values ahead:

| EC50 (HeLa) | pIC50 (CDK4/cyclin D1) | pIC50 (CDK2/cyclin E) | SMILES |
| --- | --- | --- | --- |
| > 12500 nM | 5.77 | 6.44 | O=C(CCC1CCNCC1)Nc1nc2ccc(OS(=O)(=O)c3ccc(NCCCn4ccnc4)cc3)cc2s1 [Example 25a, 4-(3-Imidazol-1-ylpropyl-amino)benzenesulfonic acid 2-(3-piperid-4-ylpropionyl-amino)benzothiazol-6-yl ester hydrochloride] |
| 9960 nM | 5.39 | 5.23 | CCNCCNc1ccc(S(=O)(=O)Oc2ccc3nc(NC(=O)CCC4CCNCC4)sc3c2)cc1 [Example 25b, 4-(2-Ethylaminoethyl-amino)-benzenesulfonic acid 2-(3-piperid-4-yl-propionyl-amino)-benzo-thiazol-6-yl ester hydrochloride] |
| > 12500 nM | 5.41 | 5.58 | O=C(CCC1CCNCC1)Nc1nc2ccc(OS(=O)(=O)c3ccc(NCCNCCO)cc3)cc2s1 [Example 25c, 4-[2-(2-Hydroxyethyl-amino)-ethylamino] benzenesulfonic acid 2-(3-piperid-4-ylpropionyl-amino)benzothiazol-6-yl ester hydrochloride] |
| 1830 nM | 6.24 | 6.59 | CC(C)CNc1ccc(S(=O)(=O)Oc2ccc3nc(NC(=O)CCC4CCNCC4)sc3c2)cc1 [Example 29a, 4-Isobutylaminobenzenesulfonic acid 2-(3-piperid-4-ylpropionyl-amino)benzothiazol-6-yl ester hydrochloride] |
| 8960 nM | 6.43 | 6.79 | CC(C)CNc1ccc(S(=O)(=O)Oc2ccc3nc(NC(=O)CCCCCCCN)sc3c2)cc1 [Example 29b, 4-Isobutylaminobenzenesulfonic acid 2-(8-aminooctanoylamino)-benzothiazol-6-yl ester hydro-chloride] |
